From patent US20060241067A1, “Methods For inhibiting angiogenesis, cell migration, cell adhesion, and cell survival” (priority 2002, published 2006)

Tests used:
[1] = test system: Human umbilical vein endothelial cells (HUVEC); assay: Endothelial cell migration assay (transwell) on ECM substrates; format: cell-based
Description: Human umbilical vein endothelial cells (HUVEC) were grown in Endothelial Growth Medium (containing 2% fetal bovine serum, bFGF and VEGF) (Clonetics, San Diego, Calif.). To render HUVECs quiescent for Rac and/or Rho assays, monolayers of endothelial cells were incubated for 18 hrs in Endothelial Basal Medium supplemented with 0.1% serum (Clonetics). Cell migration and adhesion assays on ECM substrates were performed as previously described in Kim et al. (S. Kim et al., Amer. J. Biol. Chem., 275:33920-33928 (2000); and S. Kim et al., Amer. J. Path., 156:1345-1362 (2000)).
Migration assays were performed essentially as described (Kim, et. al., 2000). […] HUVECS (25,000) were added to the upper chamber of inserts in migration buffer (Hepes buffered M199 medium containing 1% BSA, 2 mM MgCl2, 2 mM CaCl2 and 0.2 mM MnCl2) containing 25 μg/ml of various antibodies. In some experiments, 250 μM dibutyryl cAMP was placed in the upper and lower chambers of the transwell. Cells were allowed to migrate from the upper to the lower chamber for four hours at 37° C. The number of cells which had migrated were counted in three representative high power (200×) fields per insert. The data are presented as number of cells migrating+/−standard error of the mean. Migration assays were similarly performed on transfected cells. In this case, migrated transfected cells were identified by fluorescent microscopy and counted.

[2] = test system: bFGF-stimulated angiogenesis in the mouse; assay: Murine matrigel angiogenesis assay; format: in vivo, nude mice; conditions: bFGF matrigel with peptide, subcutaneous
[3] = test system: chick chorioallantoic membrane (CAM); assay: Chick chorioallantoic membrane (CAM) angiogenesis assay; format: in vivo, chicken; conditions: bFGF stimulated CAMs

AVSEHQLLHS/D [PTHrP 1-10]
endothelial cell migration on vitronectin ([1]; 1 μM peptide): similarly effective in inhibiting cell migration on vitronectin
maximum inhibition of cell migration ([1]; at a concentration of 10 μM): 50%
angiogenesis in matrigel plugs (fluorescence intensity of lectin) [2]: effective in inhibiting angiogenesis in a mouse model of angiogenesis
effectiveness at inhibiting angiogenesis relative to PTHrP 1-34 ([3]; 1 μM): slightly less effective
angiogenesis (blood vessel branch points, vessel density) ([3]; 1 μM peptide): effective in inhibiting angiogenesis in the CAM assay
